Laboratory results taken from patent US11260100B2, “Compositions targeting the interaction domain between p27Kip1 and Brk and methods of use thereof to inhibit p27 Y phosphorylation and cdk4 activity” (The Research Foundation for the State University of New York, priority 2014, dated 2022).

Tests used:
[1] = tested on: MCF7 breast cancer cells; experiment: Proliferation with ALT and Palbociclib at IC50 concentration (FIG. 9); assay type: cell-based, human; conditions: drugs at IC50 concentration, replaced every two days
Method: FIGS. 9A-9B: AltBrk Synergizes with Palbociclib. ALT, Palbociclib, or Brk alone or in combination were added to or expressed in MCF7 breast cancer cells on day 2 post plating. Drugs were added at their IC50 concentration, based on previous results. ALT is expressed from an ALT-MCF7 tetracycline inducible cell line generated in the Blain lab. When tetracycline is added to the cell culture media, ALT is expressed in these cells. Vector: no tetracycline was added, so no ALT induction was detected. (FIG. 9A) Cells were harvested and counted every two days, as a measure of proliferation. Proliferation is plotted as a percentage relative to that seen in the DMSO treated control. Drugs and media were replaced every two days. (FIG. 9B) Viability was measured by trypan blue staining, and plotted relative to viability seen in the DMSO treated control.
Additional experiments were performed assessing activity of Brk in combination with Palbociclib. The data presented in FIGS. 9A and 9B reveal that Palbociclib and Brk inhibit proliferation for 2 days, and then resistance is observed (proliferation increases). Alt maintained arrest for roughly 10 days (50% inhibition of proliferation is detected). […] Alt-Brk/Palbociclib combination leads to a more durable cell cycle arrest. Mono therapy treated cells start to become resistant between day 8-10. […]

[2] = tested on: MCF7 (ER/PR+, Her2-); experiment: Palbociclib sensitivity of breast cancer line; assay type: cell-based; conditions: Homo sapiens; MCF7, high responder
[3] = tested on: MCF7-ALT cells; experiment: Long-term proliferation arrest at IC100 (FIG. 15A); assay type: cell-based, human; conditions: IC100 Palbociclib, doxycycline induced ALT, replenished every two days
Method: FIGS. 15A-15C: ALT and PD treatment increases senescence, a clinical goal. FIG. 15A: MCF7-ALT cells were treated with IC100 concentration of Palbociclib (PD) or doxycycline to induce ALT. Drugs were replenished every two days and proliferation was determined by cell counting as indicated. Proliferation rates were standardized to the rate of proliferation seen in DMSO treated cells (control). PD treated cells were arrested for 10 days, before escape (proliferation) was detected. ALT expressing cells were arrested for 18 days before escape (proliferation) was detected. ALT expressing and PD treated cells were arrested for 30 days, with no escape detected. […] Proliferation was assessed by counting. […] Viability was measured by trypan blue staining and the ALT expressing, PD treated cells that weren't growing were viable. […]
MCF7-ALT cells were treated with a IC100 concentration of Palbociclib (PD) or doxycycline to induce ALT. Drugs were replenished every two days and proliferation was determined by cell counting as indicated. […] PD treated cells were arrested for 10 days, before escape (proliferation) was detected. ALT expressing cells were arrested for 18 days before escape (proliferation) was detected. ALT expressing and PD treated cells were arrested for 30 days, with no escape detected. […] Proliferation was assessed by counting. […]

IC50 [2]: 200 nM
SMILES: CC(=O)c1c(C)c2cnc(Nc3ccc(N4CCNCC4)cn3)nc2n(C2CCCC2)c1=O [PD0332991]
duration of proliferation inhibition / arrest [1]: 2 days | time arrested before escape (proliferation) [3]: 10 days
